Laboratory results: US10597409B2, “Water-soluble triazapyridinophane-based complexing agents and corresponding fluorescent lanthanide complexes” (CISBIO BIOASSAYS, priority 2015, dated 2020)

Legend:
[1] = Photophysical measurements of the lanthanide complexes (absorption, emission, brightness, lifetime); assay type: physicochemical
[2] = Solubility in H2O (biological and buffer media); assay type: physicochemical; details: for Solubility in H2O: yes/no

SMILES	Absorption λmax [1]	Solubility in water (biological and buffer media) [2]	Solubility in H2O [2]	Brightness ε × Φ (H2O) ([1]; in H2O)	Lifetime τH2O ([1]; in H2O)
COC(=O)COc1ccc(C#Cc2cc3nc(c2)CN(CC(=O)O)Cc2cc(C#Cc4ccc(OCC(=O)OC)cc4)cc(n2)CN(CC(=O)O)Cc2cc(C#Cc4ccc(OCCCN)cc4)cc(n2)CN(CC(=O)O)C3)cc1 [Complex 62]	320 nm	insoluble in water	no		
COC(=O)COc1cc(OC)c(-c2cc3nc(c2)CN(CC(=O)O)Cc2cc(-c4c(OC)cc(OCC(=O)OC)cc4OC)cc(n2)CN(CC(=O)O)Cc2cc(-c4ccc(OCCCN)cc4)cc(n2)CN(CC(=O)O)C3)c(OC)c1 [Complex 63]	328 nm	insoluble in water	no		
O=C(O)CN1Cc2cccc(n2)CN(CC(=O)O)Cc2cccc(n2)CN(CC(=O)O)Cc2cccc(n2)C1 [Pyridinophane]	267 nm	soluble in water	yes	564	0.78 ms
